Experimental data reported in article PMC12274739, “Differential substrate degradation by super-degron: EGFP in wild-type mouse cells, PD-1 requires CRBN humanization” (iScience, 2025).
Read-outs that look alike come from different tables or passages of the source.

What was measured:
[1] = molecular target: EGFP-IKZF (UniProt P42212+Q8C7D2, F64L/H231L/INS1V/S65T); assay type: cell-based, mouse; settings: stable
[2] = molecular target: EGFP-ZFP91 (UniProt P42212+Q8C7D2, F64L/H231L/INS1V/S65T); assay type: cell-based, mouse; settings: for Bottom, EGFP-ZFP91 / LogDC50, EGFP-ZFP91: stable
[3] = CrbnI391V/I391V mESCs, Figure 5E

Compound	Bottom, EGFP-IKZF [1, 3]	LogDC50, EGFP-IKZF [1, 3] [μM]	Bottom, EGFP-ZFP91 [2, 3]	LogDC50, EGFP-ZFP91 [2, 3] [μM]	Bottom, EGFP-IKZF ([1]; B6J-S1 mESCs, Figure 5B)	LogDC50, EGFP-IKZF ([1]; B6J-S1 mESCs, Figure 5B) [μM]	Bottom, EGFP-ZFP91 ([2]; B6J-S1 mESCs, Figure 5B)	LogDC50, EGFP-ZFP91 ([2]; B6J-S1 mESCs, Figure 5B) [μM]	degradation of EGFP-ZFP91 ([2]; CrbnI391V/I391V mESCs)
Nc1cccc2c1C(=O)N(C1CCC(=O)NC1=O)C2=O (stereo not shown) [POM, pomalidomide]	0.1316	-2.292	0.1492	-2.052	–	–	–	–	–
O=C1CC[C@H](N2Cc3c(OCc4ccc(CN5CCOCC5)cc4)cccc3C2=O)C(=O)N1 [IBR, iberdomide]	0.2424	-3.194	0.1665	-3.079	1.103	-1.536	1.006	-1.679	efficiently degraded
